The subject of one series is rats. As to the kind of experiment: Penile erection test using rats. The class given is in vivo, rat. Conditions: oral single dose 10 mg/kg in 0.5% methyl cellulose, observed for 2 hours.
Series [1] concerns the target T1, Phosphodiesterase-5 enzyme (PDE 5) (Homo sapiens, UniProt O76074).
T1 construct: separated by HPLC (Mono Q anion exchange column) with concentration gradient of 0-500 mM NaCl to elute PDE isozymes; from tissue; host or cells: human corpus cavernosal tissue
As to the kind of experiment: Test for phosphodiesterase-5 (PDE 5) activity. As to conditions: PDE 5 fraction from human corpus cavernosal tissues. The class given is biochemical.

Series [2] has as its target T2, Phosphodiesterase-3 enzyme (PDE 3) (Oryctolagus cuniculus, UniProt G1ST54).
T2 construct: The supernatant was separated by DEAE-cellulose column chromatography (Whatman DE52 bead); from tissue; host or cells: rabbit platelets
T2 sequence (G1ST54 1-1128): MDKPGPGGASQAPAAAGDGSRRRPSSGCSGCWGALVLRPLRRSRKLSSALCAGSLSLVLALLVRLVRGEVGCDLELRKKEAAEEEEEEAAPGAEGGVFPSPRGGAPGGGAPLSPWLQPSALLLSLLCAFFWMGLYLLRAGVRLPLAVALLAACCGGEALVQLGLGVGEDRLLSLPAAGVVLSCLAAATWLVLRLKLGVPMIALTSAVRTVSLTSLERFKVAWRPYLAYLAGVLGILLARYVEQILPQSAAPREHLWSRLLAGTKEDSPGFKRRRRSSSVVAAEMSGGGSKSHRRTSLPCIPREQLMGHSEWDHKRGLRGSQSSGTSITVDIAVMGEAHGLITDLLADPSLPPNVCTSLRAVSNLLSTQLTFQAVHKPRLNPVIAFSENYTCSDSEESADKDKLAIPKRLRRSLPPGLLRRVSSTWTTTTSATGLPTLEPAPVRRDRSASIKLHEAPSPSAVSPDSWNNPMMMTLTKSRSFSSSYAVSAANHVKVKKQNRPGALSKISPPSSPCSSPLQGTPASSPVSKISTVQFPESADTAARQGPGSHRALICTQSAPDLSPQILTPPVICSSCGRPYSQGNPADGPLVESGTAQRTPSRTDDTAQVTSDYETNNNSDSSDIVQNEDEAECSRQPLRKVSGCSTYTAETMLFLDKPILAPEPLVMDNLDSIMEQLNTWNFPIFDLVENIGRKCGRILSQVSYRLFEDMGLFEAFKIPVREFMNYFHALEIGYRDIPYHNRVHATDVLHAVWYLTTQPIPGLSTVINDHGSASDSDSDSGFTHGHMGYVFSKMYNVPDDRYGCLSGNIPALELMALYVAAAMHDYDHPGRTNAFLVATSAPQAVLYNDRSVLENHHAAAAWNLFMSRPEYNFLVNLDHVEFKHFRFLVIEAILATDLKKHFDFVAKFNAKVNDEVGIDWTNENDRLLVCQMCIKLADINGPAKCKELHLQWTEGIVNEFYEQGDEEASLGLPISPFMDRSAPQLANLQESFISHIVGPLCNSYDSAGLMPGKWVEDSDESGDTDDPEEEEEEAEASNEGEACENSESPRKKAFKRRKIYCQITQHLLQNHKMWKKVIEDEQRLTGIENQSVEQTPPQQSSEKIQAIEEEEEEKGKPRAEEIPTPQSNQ
The experiment in a line: Test for phosphodiesterase-3 (PDE 3) activity. It is filed as biochemical. As to conditions: PDE 3 fraction from platelets of a rabbit. The procedure: Phosphodiesterase-3 enzyme (PDE 3) was separated from platelets of a rabbit. About 60 ml of blood was collected from a puncture of the abdominal artery of a rabbit in heparinized syringes. Platelet-rich plasma was harvested by centrifugation for 5 min at 450×g and further centrifuged for 15 min at 1,200×g to precipitate the platelets. The platelets were resuspended in homogenizing buffer (50 mM Tris-HCl, 1 mM MgCl2, pH 7.4), homogenized at 4° C. and ultrasonicated (30 sec/ml). The homogenized solution was centrifuged (105,000×g) for 1 hr at 4° C. to obtain the supernatant in which PDE was dissolved. The supernatant was separated by DEAE-cellulose column chromatography (Whatman DE52 bead) by using eluent (50 mM Tris-HCl, 3.75mM2-mercaptoethanol, pH 6.0) with concentration gradient of 0-1 M sodium acetate to elute PDE isozymes. The PDE activity was measured on the each column fraction by the following process to separate PDE 3 fraction and the inhibition for PDE 3 of the compounds of formula 1 was measured by using the fraction.
To 1.5 ml tube containing 100 ul of reaction mixture (15 mM Tris-HCl, 5 mM MgCl2, 0.5 mg/ml BSA, pH 7.4) were added appropriate amount of PDE 3 fraction and PDE inhibitor and the solution was mixed well. After [^3H]-cAMP or [^3H]-cGMP (500 nM, 2 uCi/ml) was added, the mixture was reacted in incubator of 30° C. for about 1 hour and the reaction was quenched by putting the tube into boiling water for about 45 seconds to 2 min. The tube was chilled in ice bath for about 5 min. To this tube was added snake venom (1 mg/ml, 100 ul) or 5′-nucleotidase (0.1 unit/tube) and the mixture was reacted in incubator of 37° C. for 10 min and chilled in ice bath. 3 times volume of methanol to the resin was added to the anion exchange resin (Bio-Rad resin, AG1-X2, 200-400 mesh) which had been already washed with 0.5 N HCl, H2O, 0.5 N NaOH, H2O, 0.5 N HCl and H2O in order and adjusted to pH 5. Then 1 ml of the pretreated resin was added to the each tube with vortexing. The mixture was left at 4° C. for 15 min with occasional vortexing and centrifuged (10,000 rpm) for about 5 min to sediment the resin. The supernatant (700 ul) was transferred to a liquid scintillation vial, and mixed with 10 ml of scintillation cocktail. After stabilizing the mixture by leaving it overnight, the radioactivity of the tube was measured by β-counter.

Series [3] in a line: Acute oral toxicity test in rats. As to conditions: SD, rat, in vivo, 1 g/kg; rats, oral single dose; read-out: lethal dose (LD50) of oral administration.

A value given as a limit tells only on which side of the number the result lay.

As a reminder, the IC50 is the midpoint of a concentration-inhibition curve. A low value points to higher potency.

`CCCc1nn(CC)c2c(=O)[nH]c(-c3cc(S(=O)(=O)NCC4CCCN4C)ccc3OCC)nc12` (centres unmarked) [Example 57]: in the series on rats, the “PEI (penile erection index)” value stood at 131.3 ± 128.1 and the “genital grooming (number of genital groomings)” value (from here on “genital grooming”) is 1.8 ± 1.3. Further, the IC50 in series [1] was 33.3 nM. The compound further had an IC50 in series [2] of 47700 nM.
Regarding `CCCOc1ccc(S(=O)(=O)NCc2ccccn2)cc1-c1nc2c(CCC)nn(C)c2c(=O)[nH]1` [Example 52, 5-[2-propyloxy-5-(2-pyridylmethylamidosulfonyl)phenyl]-1-methyl-3-propyl-1,6-dihydro-7H-pyrazolo(4,3-d)pyrimidin-7-one], the “PEI (penile erection index)” value in the series on rats came to 233.3 ± 57.7. Moreover, the “genital grooming” value in the series on rats came to 3.0 ± 1.0. For the same compound, the values for the 50% inhibitory concentration (IC50) in series [1] and in series [2] were 9.89 nM and more than 201000 nM, respectively. Besides, the LD50 in series [3] was more than 1000 mg/kg.
Regarding `CCOc1ccc(S(=O)(=O)NC2CCN(C)C2)cc1-c1nc2c(CC(C)C)nn(C)c2c(=O)[nH]1` (centres unmarked) [Example 54, 5-[2-ethoxy-5-(1-methyl-3-pyrrolidinylamidosulfonyl)phenyl]-1-methyl-3-isobutyl-1,6-dihydro-7H-pyrazolo(4,3-d)pyrimidin-7-one], in the series with rats, the “PEI (penile erection index)” value is reported as 233.3 ± 230.9 and the “genital grooming” value worked out at 2.7 ± 2.9. The compound further gave a half-maximal inhibitory concentration (IC50) in series [1] of 39.1 nM. Besides, the IC50 in series [2] is more than 205000 nM. Also, in series [3], the LD50 is more than 1000 mg/kg.
In the case of `CCCOc1ccc(S(=O)(=O)NC(C)C)cc1-c1nc2c(CCC)nn(C)c2c(=O)[nH]1` [Example 3, 5-[2-propyloxy-5-(isopropylamidosulfonyl)phenyl]-1-methyl-3-propyl-1,6-dihydro-7H-pyrazolo(4,3-d)pyrimidin-7-one], in the series with rats, the “PEI (penile erection index)” value worked out at 233.3 ± 152.8 and the “genital grooming” value is 2.7 ± 2.1. In series [1], this compound had an IC50 of 5.36 nM. The compound also registered an IC50 in series [2] of more than 223000 nM. The LD50 in series [3] is more than 1000 mg/kg.
For `CCCc1nn(CC)c2c(=O)[nH]c(-c3cc(S(=O)(=O)NCCC4CCCN4C)ccc3OCC)nc12` (centres unmarked) [Example 69], in the series on rats, the “PEI (penile erection index)” value amounted to 225.0 ± 95.7 and the “genital grooming” value is given as 2.3 ± 1.0. Further, in series [1], the midpoint of inhibition, the IC50, lay at 31.9 nM. In addition, in series [2], 76500 nM corresponded to half-maximal inhibition (IC50).
Consider `CCCc1nn(CC)c2c(=O)[nH]c(-c3cc(S(=O)(=O)NCC4CCN(CC)C4)ccc3OCC)nc12` (centres unmarked) [Example 65], for which the “PEI (penile erection index)” value in the series with rats is 93.8 ± 94.4. Also, the “genital grooming” value in the series on rats was found to be 1.8 ± 1.0. The IC50 in series [1] is 74.5 nM; in series [2], 32100 nM.
With `CCCc1nn(C)c2c(=O)[nH]c(-c3cc(S(=O)(=O)Nc4ccc(C(C)(C)C)cc4)ccc3OCC)nc12` [Example 28, 5-[2-ethoxy-5-(4-t-butylphenylamidosulfonyl)phenyl]-1-methyl-3-propyl-1,6-dihydro-7H-pyrazolo(4,3-d)pyrimidin-7-one], in the series with rats, the “PEI (penile erection index)” value is recorded as 300.0 ± 100.0 and the “genital grooming” value came to 3.0 ± 1.0. This compound also had an IC50 in series [1] of 46.6 nM. Besides, the LD50 in series [3] is more than 1000 mg/kg.
Take `CCCNS(=O)(=O)c1ccc(OCC)c(-c2nc3c(CCC)nn(C)c3c(=O)[nH]2)c1` [Example 7, 5-[2-ethoxy-5-(propylamidosulfonyl)phenyl]-1-methyl-3-propyl-1,6-dihydro-7H-pyrazolo(4,3-d)pyrimidin-7-one]: in the series with rats, the “PEI (penile erection index)” value amounted to 200.0 ± 0.0 and the “genital grooming” value was found to be 6.7 ± 3.8. The compound also showed an IC50 in series [1] of 20.7 nM. The LD50 in series [3] is more than 1000 mg/kg.
On to `CCCc1nn(C)c2c(=O)[nH]c(-c3cc(S(=O)(=O)NC4CCCCC4)ccc3OCC)nc12` [Example 19, 5-[2-ethoxy-5-(cyclohexylamidosulfonyl)phenyl]-1-methyl-3-propyl-1,6-dihydro-7H-pyrazolo(4,3-d)pyrimidin-7-one], for which, in the series on rats, the “PEI (penile erection index)” value is given as 233.3 ± 57.7 and the “genital grooming” value is reported as 5.0 ± 0.0. Also, in series [1], inhibition was half-maximal at 4.98 nM (IC50). Besides, the LD50 in series [3] was more than 1000 mg/kg.
Regarding `CCCc1nn(C)c2c(=O)[nH]c(-c3cc(S(=O)(=O)NCC4CCN(CC)C4)ccc3OCC)nc12` (centres unmarked) [Example 63], in the series with rats, the “PEI (penile erection index)” value was 12.5 ± 25.0 and the “genital grooming” value came out at 1.5 ± 0.6. Besides, the midpoint of inhibition in series [1], the IC50, lay at 98.2 nM. The same compound showed an IC50 in series [2] of 52300 nM.
Consider `CCCc1nn(CC)c2c(=O)[nH]c(-c3cc(S(=O)(=O)NC(C)C)ccc3OCC)nc12` [Example 5, 5-[2-ethoxy-5-(isopropylamidosulfonyl)phenyl]-1-ethyl-3-propyl-1,6-dihydro-7H-pyrazolo(4,3-d)pyrimidin-7-one], for which, in the series with rats, the “PEI (penile erection index)” value was 266.7 ± 57.7 and the “genital grooming” value is 3.3 ± 1.2. This compound also had an IC50 in series [1] of 19.6 nM. Besides, the LD50 in series [3] was more than 1000 mg/kg.
As for `CCCc1nn(C)c2c(=O)[nH]c(-c3cc(S(=O)(=O)NCC4CCN(C)C4)ccc3OCC)nc12` (centres unmarked) [Example 59], in the series on rats, the “PEI (penile erection index)” value is 150.0 ± 57.7. Moreover, in the series on rats, the “genital grooming” value came out at 1.5 ± 0.6. The IC50 in series [1] is 140 nM; in series [2], 122000 nM.
For the compound `CCCc1nn(CC)c2c(=O)[nH]c(-c3cc(S(=O)(=O)Nc4ccc(C(C)(C)C)cc4)ccc3OCC)nc12` [Example 29, 5-[2-ethoxy-5-(4-t-butylphenylamidosulfonyl)phenyl]-1-ethyl-3-propyl-1,6-dihydro-7H-pyrazolo(4,3-d)pyrimidin-7-one], in the series on rats, the “PEI (penile erection index)” value is recorded as 233.3 ± 152.8 and the “genital grooming” value worked out at 3.0 ± 2.0. In series [1], this compound showed an IC50 of 49.8 nM. In series [3], the LD50 was more than 1000 mg/kg.
Consider `CCCOc1ccc(S(=O)(=O)NCc2ccccc2)cc1-c1nc2c(CCC)nn(C)c2c(=O)[nH]1` [Example 23, 5-[2-propyloxy-5-(benzylamidosulfonyl)phenyl]-1-methyl-3-propyl-1,6-dihydro-7H-pyrazolo(4,3-d)pyrimidin-7-one], for which, in the series on rats, the “PEI (penile erection index)” value was 266.7 ± 57.7 and the “genital grooming” value was found to be 3.0 ± 1.0. The compound further gave an IC50 in series [1] of 12.7 nM. The LD50 in series [3] was more than 1000 mg/kg.
